Reference: publication PMC10377586 (Biomolecules, 2023)

Assays:
rat A2A (rA2A) ARs = target: T1, rat A2A (rA2A) ARs (Rattus norvegicus, UniProt P30543); assay: Radioligand binding [3H]MSX-2, rat brain striatal membranes; conditions: read-out: rA2A [3H]MSX-2 % inhibition ± SEM at 10 µM
T1 construct: rat brain striatal membrane preparations for A2A AR assays; tissue Pel Freez; host or cells: rat brain striatum membranes

SH-SY5Y cells = assay: Intrinsic neurotoxicity, LDH release from SH-SY5Y cells; type: cell-based; conditions: 50 µM
Description: For neuroprotection studies, a cellular model of neuroblastoma SH-SY5Y cells exposed to hydrogen peroxide was applied. Lactate dehydrogenase (LDH) release was used as a measure of cell death. First, the compounds (11a, 11c, 12, 13, 20a, 21, and 22) were tested for their possible intrinsic neurotoxicity to the SH-SY5Y cell line (see Supplementary Figure S1). […] All other compounds were tested for cytoprotective effects against H2O2-induced toxicity in SH-SY5Y cells.
Neuroblastoma SH-SY5Y cells were seeded at the density of 20,000 cells per well to 96-well plates one day before the experiment. Twelve hours prior to start of the assay, cell culture medium was replaced with the fresh portion of reduced serum (1%) medium. Tested compounds were added to the cells at the final concentration of 10 or 50 µM in 1% DMSO. In the neuroprotection studies, hydrogen peroxide, at a final concertation of 300 µM, was pipetted to the assay plate 1 h after tested compounds addition. Cell death, represented by the release of LDH through the perforated cell membrane, was measured following 14 h incubation of cells with the compounds and hydrogen peroxide. LDH levels in cell culture medium were determined using fluorometric CytoTox-ONE Homogeneous Membrane Integrity Assay (Promega Corporation, Madison, WI, USA), according to manufacturer’s instructions.
Supplementary Figure 1. […]

[1] = target: human dopamine D2L receptors (Homo sapiens, UniProt P14416); assay: cAMP accumulation assay in forskolin-stimulated HEK293 cells expressing hD2R; type: cell-based
human dopamine D2L receptors, sequence (P14416 whole entry): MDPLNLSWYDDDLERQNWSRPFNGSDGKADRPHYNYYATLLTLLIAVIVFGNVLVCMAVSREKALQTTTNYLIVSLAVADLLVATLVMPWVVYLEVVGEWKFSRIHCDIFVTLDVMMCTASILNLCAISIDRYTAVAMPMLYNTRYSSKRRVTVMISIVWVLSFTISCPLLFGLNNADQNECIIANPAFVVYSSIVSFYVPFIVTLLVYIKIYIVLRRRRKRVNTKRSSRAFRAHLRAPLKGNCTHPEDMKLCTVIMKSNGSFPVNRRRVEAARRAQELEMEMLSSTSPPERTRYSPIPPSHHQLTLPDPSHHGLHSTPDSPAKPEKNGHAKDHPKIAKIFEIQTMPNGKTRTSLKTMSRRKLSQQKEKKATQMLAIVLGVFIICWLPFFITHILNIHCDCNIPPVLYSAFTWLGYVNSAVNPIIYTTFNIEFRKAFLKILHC

T1 sequence (P30543 whole entry): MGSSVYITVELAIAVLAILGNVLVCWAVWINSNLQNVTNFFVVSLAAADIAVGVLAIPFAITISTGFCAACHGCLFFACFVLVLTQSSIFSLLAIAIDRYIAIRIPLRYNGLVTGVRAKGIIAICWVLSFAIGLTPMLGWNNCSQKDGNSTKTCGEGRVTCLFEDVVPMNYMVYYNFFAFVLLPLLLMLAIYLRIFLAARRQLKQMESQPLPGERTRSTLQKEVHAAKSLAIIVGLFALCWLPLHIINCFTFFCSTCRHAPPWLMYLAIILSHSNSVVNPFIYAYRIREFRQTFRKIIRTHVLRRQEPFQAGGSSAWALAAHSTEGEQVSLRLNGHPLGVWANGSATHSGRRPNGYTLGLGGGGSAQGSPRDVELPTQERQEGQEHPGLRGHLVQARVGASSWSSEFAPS

| inhibition at 10 µM (rat A2A (rA2A) ARs) | Compound | intrinsic neurotoxicity to SH-SY5Y cell line (LDH release) (SH-SY5Y cells) | EC50 ([1]; forskolin-stimulated HEK293 cells, human D2L, read-out: EC50, functional cAMP assay) | intrinsic activity at D2R ([1]; functional cAMP assay) |
| --- | --- | --- | --- | --- |
| 14% | CCCCCCn1c(NCCc2ccc(O)c(O)c2)nc2c1c(=O)n(C)c(=O)n2C [Compound 11i, 8-((3,4-Dihydroxyphenethyl)amino)-7-hexyl-1,3-dimethyl-3,7-dihydro-1H-purine-2,6-dione] | – | – | – |
| – | CCCCn1c(=O)c2c(nc(NCCc3ccc(O)c(O)c3)n2CCC)n(CCCC)c1=O [Compound 13, 1,3-Dibutyl-8-((3,4-dihydroxyphenethyl)amino)-7-propyl-3,7-dihydro-1H-purine-2,6-dione] | significant cytotoxicity | 11.3 µM | agonistic properties |
| 44% | Cn1c(=O)c2c(nc(NCCc3ccc(O)c(O)c3)n2CCc2ccccc2)n(C)c1=O [Compound 11k, 8-((3,4-Dihydroxyphenethyl)amino)-1,3-dimethyl-7-phenethyl-3,7-dihydro-1H-purine-2,6-dione] | – | – | – |
